According to patent publication US20120040939A1, “MEDICINAL USE OF 5-BENZYLAMINOSALICYLIC ACID DERIVATIVE OR ITS SALT” (priority 2009, published 2012):

Tests used:
Format in all cases: in vivo
Male ICR mice [1] = assay: Locomotor activity using open field test; details: 1.25-50 mg/kg oral, twice daily; 1 hour before the test
Experimental: The locomotor activity using open field test measured to know influence of drug treatment on activity in animals. Male ICR mice weighing 20-23 g of body weight were used throughout the study.
(§1) Experimental animals were kept in an animal breeding room with a h dark/12 h light cycle and accommodated by 8 mice per cage supplied freely with water and feeding. The mice consisted of 8 animals per group were randomly allocated to the treatment groups.
(§2) Compound 2 was suspended in 10% lutrol solution and all the suspended solutions were administered orally to the mice twice daily at a volume of 5 ml/kg. The control group was treated only with 10% lutrol solution in the same manner. All the treatment of drugs or vehicle to the animals were given 1 hour before the test (n=8/group).
The open field was consisted of square arena (58 cm×58 cm) surrounded by a 30 cm height wall. […] At the start of each trial, a mouse was placed in a corner of the field and was allowed to freely move the arena and the moving trajectory for 5 min was measured. The behavior of animals was recorded and analyzed using a videotracking software (Etho Vision 3.0, Noldus Information Technology, Leesburg, Va.) attached to the ceiling above the middle of the arena.
The collected data were analyzed by one-way ANOVA followed by Tukey's HSD (Honestly Significant Difference) post hoc comparison.

male C57BL/6 mice [2] = assay: Repeated restraint stress test with forced swim test as index for depression; details: for decrease of immobility time compared with stressed control group (control 2): forced swim test; for decrease of immobility time compared with unstressed group (control 1): no stress, forced swimming test
Experimental: To test the efficacy of compounds on a stress-induced depression a restraint stress animal model was used. After evoking depression symptoms in a mouse corresponding to a human depression by exposing a stressed condition that it was placed in a narrow space to be unable to move, whether the compounds have any anti-depression effects were tested after treatment to this animal.
(§3) Nine-week-old male C57BL/6 mice weighing 20-23 g of body weight were used through this study. Experimental animals were kept in an animal breeding room with a 12 h dark/12 h light cycle and accommodated by 5-6 mice per cage supplied freely with water and feeding. The mice consisted of 11 animals per group were randomly allocated to the treatment groups.
as §2, with “(n=11/group).” for “(n=8/group).”
Animals were subjected to restraint-stress one hour after compound 2 or 10% lutrol was administered orally. Mice were exposed to restraint stress everyday 2 hr for 14 days and received a forced swim test such as <Example 4> as an index for depression.

male C57BL/6 mice [3] = assay: Forced swimming test, antidepressant effect; details: final 4 min of 6-min session
Experimental: Forced swimming test is used to select compounds with therapeutic efficacy for depression. […] The immobility time is counted whenever the animal remained floating passively in the water without struggling except minimal movement to protrude its head above the water surface.
as §3, with “8” for “5-6”, “8” for “11”
as §2
At the day of the experiment, the mice were acclimatized in the testing room over 60 minutes, orally given with the compound 2 or vehicle control, and received the forced swimming test. For the forced swimming test, a mouse was individually forced to swim inside an open glass cylindrical bath with height of 26 cm and diameter of 14 cm filled with water at 24±1° C. up to 16 cm high from the bottom so that the mouse tail could not reach the bottom. One hour after the mouse were orally given compound 2 and control vehicle, then the mice were exposed to forced swimming for 6 min in the water bath and their movement was recorded using a video camera system. The total duration of immobility was measured as a mean during the final 4 min of a 6-min test session and the data were statistically analyzed with one-way ANOVA followed by Tukey's HSD (Honestly Significant Difference) post hoc comparison.

male C57BL/6 mice [4] = assay: Stress-induced anxiety (restraint stress), elevated plus maze (EPM); details: EPM 5 minutes
Experimental: To evaluate the effect of compound 2 on stress-induced anxiety, we used a restraint stress animal model. Anxiety was evoked by exposing stress that a mice was restrained to be immovable in a narrow space, and whether the compound could show anxiolytic effect after administration the animals.
When experimental animals are exposed to stress, various physiological changes occur, which can be measured through several behavioral tests. In this study, anxiety of experimental animals was evaluated by an elevated plus maze (EPM). EPM apparatus consisted of two open arms, and two closed arms which are horizontally crossed. It is designed that the cross path is located 60 cm above the floor for the animals to feel anxiety. […]
At the day of experiment, animals exposed to restraint stress after animals were acclimatized to testing room over 60 minutes, and then were orally administered with the compound. One hour after administration the oral administration of compound 2 or lutrol, experimental animals were placed at the center of EPM and the animal behaviors were recorded during total 5 minutes using a camera mounted on the ceiling and a computer program (etho vision 3.0 (Noldus Information Technology)). The collected data were expressed as % time spent in open arms and the statistical analysis was done using one-way ANOVA followed by LSD (Least significant difference) post hoc comparisons.

Sprague-Dawley (SD) rats = assay: Water immersion restraint stress (WIRS) gastric damage model; details: 30 mg/kg, given 1 hour before 10 hours WIRS
Experimental: The Sprague-Dawley (SD) rats weighing 200 g of body weight were deprived of food for over 24 hours and then were given with the experimental compound. After 1 hour, the rats were placed in a stress cage and immersed into water at 24° C. for 10 hours to induce WIRS
The SD rats weighing 200 g of body weight were deprived of food for 24 h and then were given with 30 mg/kg of compound 2. After 1 hour, the rats were placed in a stress cage and immersed into water for 10 hours. After WIRS for 10 hours, the rats were sacrificed under anesthesia with ether. Each stomach was isolated, soaked and fixed in 10 ml of 2% formalin solution for 10 minutes, and then opened along the greater curvature of the stomach. After spreading the stomach, stress-induced hemorrhagic lesions were examined macroscopically, and the results were shown in FIG. 2.

Male ICR mice [5] = assay: Tail suspension test (TST), antidepressant effect; details: twice daily, final 4 min of 6 min test, 1 h after treatment
Experimental: The effectiveness of the compound was evaluated using a tail-suspension test as in vivo method for depression. In this test immobility time of animals typically for 5-10 minutes is recorded using a manual or an automated device.
as §1, with “Male ICR mice weighing 28-30 g of body weight were used throughout the study. Experimental animals” for “Experimental animals”, “with a 12 h dark/12” for “with a h dark/12”
as §2, with “and the” for “and”, “all” for “all the”, “4” for “5”
This test was evaluated according to the method described in a previous publication [Psycopharmacology 85, 367-370, Steru et al. (1985)]. At the day of experiment, the mice were acclimatized in the testing room over 60 minutes and given with the compound, and then the test was conducted. After 1 h after drug treatment, the mice were taped with experimental adhesive tape, at approximately 1 cm from the tip of the tail. The mice were individually suspended on an experimental shelf about 58 cm above a table top by attaching the adhesive tape at the tip of the tail to the experimental shelf. And after that, total immobility time was measured for 6 min in the absence of noise. The total immobility time was measured during the final 4 min of a 6 min test session and the data were expressed as mean and analyzed by one-way ANOVA followed by Tukey's HSD (Honestly Significant Difference) post hoc comparison.

[6] = 2.5 mg/kg oral BID + restraint stress 2 hr daily for 14 days
[7] = 5 mg/kg oral BID + restraint stress 2 hr daily for 14 days

locomotor activity (open field, 5 min) (Male ICR mice [1]): not different among groups
SMILES: O=C(O)c1cc(NCCc2ccc(C(F)(F)F)cc2)ccc1O [compound 2, 2-hydroxy-5-[2-(4-trifluoromethyl-phenyl)-ethylamino]-benzoic acid]
decrease of immobility time compared with stressed control group (control 2) (male C57BL/6 mice [2]; [6]): 32%
decrease of immobility time compared with unstressed group (control 1) (male C57BL/6 mice [2]; 2.5 mg/kg oral BID for 2 weeks): 21%
decrease of immobility time compared with stressed control group (control 2) (male C57BL/6 mice [2]; [7]): 39%
decrease of immobility time compared with unstressed group (control 1) (male C57BL/6 mice [2]; 5 mg/kg oral BID for 2 weeks): 26%
decrease of immobility time compared with the vehicle control group (male C57BL/6 mice [3]; 1.25 mg/kg oral BID): 31%
decrease of immobility time compared with the vehicle control group (male C57BL/6 mice [3]; 2.5 mg/kg oral BID): 34%
decrease of immobility time compared with the vehicle control group (male C57BL/6 mice [3]; 5 mg/kg oral BID): 30%
decrease of immobility time compared with the vehicle control group (male C57BL/6 mice [3]; 12.5 mg/kg oral BID): 34%
% time spent in open arm, increase compared with the stressed group (control 2) (male C57BL/6 mice [4]; [6]): 24%
% time spent in open arm, increase compared with the stressed group (control 2) (male C57BL/6 mice [4]; [7]): 23%
WIRS-induced gastric lesion index (Sprague-Dawley (SD) rats): definitely reduced
decrease of total immobility time compared with the control group (Male ICR mice [5]; 1.25 mg/kg oral): 46%
decrease of total immobility time compared with the control group (Male ICR mice [5]; 2.5 mg/kg oral): 43%
decrease of total immobility time compared with the control group (Male ICR mice [5]; 5 mg/kg oral): 42%
decrease of total immobility time compared with the control group (Male ICR mice [5]; 12.5 mg/kg oral): 38%
decrease of total immobility time compared with the control group (Male ICR mice [5]; 25 mg/kg oral): 54%
decrease of total immobility time compared with the control group (Male ICR mice [5]; 50 mg/kg oral): 57%
